In paper PMC2783604 (Synapse (New York, N.Y.), 2009):

Legend:
dopamine D3 receptor = dopamine D3 receptor (Macaca mulatta, UniProt F6U709); experiment: radioligand saturation binding by quantitative autoradiography on brain sections
[1] = target: dopamine D3 receptor (hD3) (Homo sapiens, UniProt P35462); experiment: radioligand saturation binding
[2] = target: dopamine D3 receptor (rD3) (Rattus norvegicus, UniProt P19020); experiment: radioligand saturation binding
Sequence of dopamine D3 receptor (rD3) (P19020 whole entry): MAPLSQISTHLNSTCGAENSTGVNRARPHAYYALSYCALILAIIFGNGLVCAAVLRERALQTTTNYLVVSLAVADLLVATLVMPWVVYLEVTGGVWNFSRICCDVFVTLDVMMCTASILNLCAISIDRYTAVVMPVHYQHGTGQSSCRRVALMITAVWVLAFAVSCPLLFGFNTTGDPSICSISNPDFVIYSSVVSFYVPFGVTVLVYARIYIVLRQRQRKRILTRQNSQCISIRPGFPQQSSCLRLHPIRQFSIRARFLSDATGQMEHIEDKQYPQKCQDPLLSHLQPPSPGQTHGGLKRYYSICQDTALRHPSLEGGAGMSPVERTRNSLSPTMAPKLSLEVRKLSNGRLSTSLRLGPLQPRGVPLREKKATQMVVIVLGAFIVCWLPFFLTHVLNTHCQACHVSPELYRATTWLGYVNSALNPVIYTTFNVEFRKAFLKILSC

Sequence of dopamine D3 receptor (hD3) (P35462 whole entry): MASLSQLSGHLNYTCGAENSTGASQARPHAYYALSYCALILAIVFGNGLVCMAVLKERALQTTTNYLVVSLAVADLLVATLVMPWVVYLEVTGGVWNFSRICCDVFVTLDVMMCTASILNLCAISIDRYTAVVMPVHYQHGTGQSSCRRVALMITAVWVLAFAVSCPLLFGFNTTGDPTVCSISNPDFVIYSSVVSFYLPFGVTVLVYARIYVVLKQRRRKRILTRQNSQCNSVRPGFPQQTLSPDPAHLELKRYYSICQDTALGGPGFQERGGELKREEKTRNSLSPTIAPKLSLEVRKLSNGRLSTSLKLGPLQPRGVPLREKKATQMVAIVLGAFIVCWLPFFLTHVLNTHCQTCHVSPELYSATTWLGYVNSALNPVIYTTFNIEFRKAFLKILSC
Sequence of dopamine D3 receptor (F6U709 1-400): as the sequence (P35462 whole entry) above, with S3P, A17V, I101V, A151T, P247R, K281R counted along it

Row | SMILES | Kd (dopamine D3 receptor) [nM] | Kd [1] [nM] | Kd [2] [nM]
1 | COc1ccccc1N1CCN(CCCCNC(=O)c2ccc(N(C)C)cc2)CC1 [WC-10, 4-(Dimethylamino)-N-(4-(4-(2-methoxyphenyl)piperazin-1-yl)butyl)benzamide] | 1.1 | – | –
2 | CCN1CCC[C@H]1CNC(=O)c1c(O)c(Cl)cc(Cl)c1OC [[^3H]raclopride] | – | 18 ± 1 | 17.1 ± 1.7
